Where two headings read alike, the source gives them in different places.
Key:
A549 cells [1] = assay: Detection of intracellular ROS by flow cytometry (CM-H2DCFDA); type: cell-based, human; conditions: for intracellular ROS increase: A549, dose responsive, 6 h, in words
Experimental: To establish whether or not the complexes of this disclosure would increase intracellular ROS levels, A549 cells were treated with each complex in a dose responsive manner.
Tumor cells (1×10^6) were plated in a 6-well plate overnight and then incubated with media containing various complexes described at concentrations of 0.625-2.5 μM. Control cells were treated with vehicle only. After a 6 h. incubation, the cells were washed with PBS, detached with 0.250 mL 1× trypsin, collected in a 15 mL conical tube, and pelleted by centrifugation (3 min @ 300 g) at 5° C. The resulting pellet was again washed 2× with cold PBS and pelleted at 5° C. […] The cells were then pelleted, washed with 2 mL PBS, and re-suspended in PBS containing 2 μg/mL propidium iodide (PI, Chemodex P0023) for a final cell concentration of 0.5×10^6 cells/mL. Control samples of unstained cells, cells stained with only CM-H2DCFDA, and cells stained with only PI were also prepared. Each sample was added to one well of a 96-well plate. Samples were then subjected to FACS analysis using a Millipore Guava easyCyte 8 and analyzed using the Guava inCyte software.

[2] = test system: thioredoxin reductase (TrxR) in A549 cells; assay: Lipoate reduction assay of thioredoxin reductase activity in live cells; type: cell-based, human; conditions: for inhibition of TrxR (lipoate reduction): 6 h; for TrxR activity by lipoate reduction, time and dose dependence: A549, in words
Experimental: To assess whether any or all of the present gold complexes could serve as TrxR inhibitors, standard tests involving the reduction of the oxidized form of the cell-permeable cofactor lipoate to its corresponding reduced form, dihydrolipoate, were carried out. […] [Cl] and 5 (cocktail), auranofin, and doxorubicin for 6 h. Post treatment, the live cells were monitored colorimetrically over 180 min for their ability to reduce lipoate (FIG. 5A).
Cells were harvested and seeded at a density of 10,000 cells/well A549 in 96-well culture plates. They were then incubated overnight at 37° C. and 5% CO2. The next day, appropriate serial dilutions of drug stock in culture media were performed, and 100 μL of the appropriate solution were added to each well. Cells were returned to the incubator for 6 h. Afterwards, the liquid was then removed from each well by vacuum aspiration and replaced by 100 μL of 5 mM lipoate (Tokyo Chemical Industry Co., Ltd. L0207) and 1 mM DTNB (Acros Organics 117540050) in HBSS (Life tech 14025-092). The absorbance of each well at […] was recorded immediately and once every 20 min for three h on a microplate reader (Molecular Devices, Sunnyvale, Calif.). Plates were covered with aluminum foil between readings.

A549 lung cancer cells [3] = assay: Cell proliferation (MTT) assay in A549 lung cancer cells; type: cell-based, human; conditions: for Fold Difference relative to 1: A549 IC50 relative to complex 1
Experimental: (§1) Cells were harvested and seeded into 96-well culture plates (Costar 07-200-90) in 100 μL of culture media. They were allowed to incubate overnight at 37° C. in the presence of 5% CO2. A549 was seeded at a density of 1000 cells/well, A2780 at 2500 cells/well, A2780CP at 3000 cells/well, and PC-3 at 2000 cells/well. The next day, appropriate serial dilutions of drug stocks in culture media were made. To each well of a 96 well plate was added 100 μL of the appropriate solution. After a total of three days, a […] aliquot of 3 mg/mL tetrazolium dye, 344,5-dimethylthiazol-2-yl)-2,5-diphenyltetrazolium bromide (Alfa Aesar L11939) was added to each well, followed by a 4 hr incubation period at 37° C. The medium was then removed, the resulting formazan was dissolved in […] DMSO and the respective absorbances were measured at 560-650 nm using a microplate reader (Molecular Devices, Sunnyvale, Calif.). Absorbance values were corrected for background and then normalized to wells containing untreated cells to allow for plate-to-plate comparisons. The data are shown as mean inhibition of proliferation or growth as a percentage of control cells and are from 2-3 replicate experiments. Resulting dose response curves were subjected to linear regression analysis (Origin by OriginLab, Inc.) for determination of IC50 values.

A549 lung cancer cells [4] = assay: ICP-MS detection of intracellular Au (cellular uptake)
Experimental: Roughly 7−8×10^6 cells were grown to 70-80% confluence in T-75 cell culture flasks (Thermo 130190) and treated with respective compound in RPMI medium supplemented with 10% FBS and antibiotics for the desired incubation time. The medium was then removed and cells were washed with 8 mL 1× warm PBS. 2 mL 1×PBS was then added to each flask, and the cells were removed by scraping. Each cell suspension was then pipetted into a clean, labeled 15 mL centrifuge tube (Thermo 339650). Cells were pelleted by centrifuging at 1,000 rpm for 5 min in an Eppendorf 5804 with a swing-bucket rotor. The supernatant was removed by vacuum aspiration, and the pellet was resuspended in 50 μL autoclaved deionized water. Suspension/lysates were then kept at −80° C. until further use. After thawing, the lysates were then sonicated using a Branson Digital Sonifier, and 5 μL aliquots were taken for determination of protein content of the sample. Lysates were digested with 80 μL aqua regia and heated to 65° C. for 1 h. Digested lysates were diluted with 4 mL 3% Trace Metal Grade HCl and gold content was measured on a Perkin Elmer NexION 300× set to detect gold at 197 m/z. Gold concentrations were quantified using the linear range of a standard curve generated by serial dilution of an ICP-MS gold standard (Ricca MSAU1KH-100) in 3% HCl. Values were then normalized to protein content as determined using a Modified Lowry Protein Assay Kit (Thermo 23240) and known concentrations of bovine serum albumin (Fisher 9048-46-8).
The Modified Lowry Assay was used to determine the protein content of each sample for normalization purposes. The standard curve for each run was made from a 2-fold serial dilution of fresh 5 mg/mL BSA solution. Aliquots were diluted to within the linear range of the standard curve using autoclaved DI water, and subjected to the Modified Lowry Assay in round-bottomed 96-well clear plates (Fisher 12565500). […] All other aspects of the procedure were as detailed in the microplate procedure instructions that come with the kit.

[5] = Electrochemical analysis (differential pulse voltammetry) in DMSO; type: physicochemical; conditions: 0.1M [N(nBu)4][PF6], 0.1 mM analyte, vs SCE
Experimental: [Cl] (Guth et al., 2011; Gómez et al., 2003).
1,3-Dimesitylnapthoquinimidazolium chloride (Sanderson et al., 2006; Tennyson et al., 2010), (1,3-dimesityl-4,5-naphthoquino-imidazol-2-ylidene)-silver(I) chloride (Sanderson et al., 2006; Tennyson et al., 2010), (C4H2S)AuCl (Hashmi, et al., 2010) were prepared according to the literature procedures. All other reagents were purchased from commercial sources and used as received, including: [((CH3)3Si)2N]Na (NaHMDS) and silver(I) oxide. CD2Cl2 (99.9%) was purchased from Acros Laboratories in glass ampules and used as received. Solvents were either dried with a solvent purification system from the Inert Innovative Technology, Inc. (dichloromethane, diethyl ether, hexanes, tetrahydrofuran and toluene) or freshly distilled over 3 Å molecular sieves and degassed using three consecutive freeze-pump-thaw cycles prior to use. UV-vis spectra were obtained at ambient temperature with a Hewlett-Packard 8452A diode array spectrophotometer with molar absorptivities reported in M^−1 cm^−1. ^1H and ^13C NMR spectra were recorded on Bruker 300 MHz spectrometer. Spectra were referenced to the residual solvent as an internal standard, for ^1H NMR: CD2Cl2, 5.32 ppm and ^13C NMR: CD2Cl2, 53.84 ppm. High-resolution mass spectra (HRMS) were obtained with an Agilent Technologies 6530 Accurate Mass Q-TOF LC/MS (ESI) and are reported as m/z (relative intensity). Electroanalytical measurements were performed on a CHI620E electrochemical workstation using a silver wire quasi-reference electrode, a platinum disk working electrode and a Pt wire auxiliary electrode in a three-electrode cell under an atmosphere of nitrogen. […] All potentials listed herein were determined by differential pulse voltammetry and referenced to a saturated calomel electrode (SCE) by shifting ferrocene^0/+ to 0.435 V (DMSO) (Aranzaes et al., 2006). Spectroelectrochemistry measurements were obtained at ambient temperature with a custom designed three-electrode cell using Hewlett-Packard 8452A diode array spectrophotometer and CHI620E. Elemental analyses were performed by Midwest Microlab, LLC in Indianapolis, Ind. […] Trypsin (Hyclone SH30236.01) and Dulbecco's Phosphate Buffer Saline (Sigma R5886) were used for general cell maintenance and harvesting. Cell lines were obtained from the ATCC (A549 and PC-3) and Prof. Zahid Siddik at MD Anderson (A2780 and A2780CP). Thiazolyl blue tetrazolium bromide (Alfa Aesar L11939) was used for cell proliferation assays. Cell culture plastic ware consisted of generic T-75 flasks, 80.5 mm diameter culture dishes, and treated 96-well plates.

[6] = test system: 2780CP ovarian (multi-drug resistant); assay: Cell proliferation (MTT) assay in 2780CP ovarian cells; type: cell-based; conditions: Table 3; error is standard error of the mean
Experimental: (§2) Further anti-proliferation studies were carried out with complex 1 and its naphthoquinone component 4[H][Cl] using the following cell lines: A2780 ovarian (a wt-p53 cell line sensitive to platinum treatment), 2780CP ovarian (isogenic to A2780 but expressing multi-drug resistance (MDR)), and PC-3 prostate (p53 null) (Table 3).
as §1, with “The data are shown as mean inhibition of proliferation or growth as a percentage of control cells and are from 2-3 replicate experiments. Resulting dose response curves were subjected to linear regression analysis (Origin by OriginLab, Inc.) for determination of IC50 values.” left out

[7] = test system: A2780 ovarian (wt-p53, platinum sensitive); assay: Cell proliferation (MTT) assay in A2780 ovarian cells; type: cell-based; conditions: Table 3; error is standard error of the mean
Experimental: as §2
as §1, with “The data are shown as mean inhibition of proliferation or growth as a percentage of control cells and are from 2-3 replicate experiments. Resulting dose response curves were subjected to linear regression analysis (Origin by OriginLab, Inc.) for determination of IC50 values.” left out

PC-3 prostate (p53 null) = assay: Cell proliferation (MTT) assay in PC-3 prostate cells; type: cell-based; conditions: Table 3; error is standard error of the mean
Experimental: as §2
as §1, with “The data are shown as mean inhibition of proliferation or growth as a percentage of control cells and are from 2-3 replicate experiments. Resulting dose response curves were subjected to linear regression analysis (Origin by OriginLab, Inc.) for determination of IC50 values.” left out

A549 cells [8] = conditions: A549, 24 h
Experimental: Control cells were treated with vehicle only. At 24 h, the media was collected and the cells were washed with PBS. The PBS washing was collected and the attached cells were then subjected to 0.5× trypsin (diluted with PBS) for 2 min. All media and washings were collected, pelleted by centrifugation (3 min @ 300 g) and washed twice with cold PBS. […] After this, 100 μL of cell suspension was added to 1.5 mL centrifuge tubes, followed by 5 μL each of Annexin V-FITC and propidium iodide (PI, 50 μg/mL) solution. Control samples of unstained cells, cells stained with only Annexin V-FITC, and cells stained with only PI were also prepared. Samples were allowed to incubate in the dark for 15 min at ambient temperature. After incubation, each sample was diluted with 200 μL of Annexin V binding buffer, and the resulting 300 μL sample was added to one well of a 96-well plate. Samples were then subjected to FACS analysis using a Millipore Guava easyCyte 8 and analyzed using Guava inCyte software.

[9] = A549, low concentrations (0.1-0.6 μM)
[10] = A549 lung cancer cells, MTT, 72 h, read-out: IC50
[11] = A549, higher concentrations (1.25-5.0 μM)

Row | Structure (SMILES) | intracellular ROS increase (A549 cells [1]) | inhibition of TrxR (lipoate reduction) [2, 9] | Fold Difference relative to 1 (A549 lung cancer cells [3]) | IC50 (A549 lung cancer cells [3]; [10]) [nM] | E1/2 (V) DPV, first reduction, formation of semiquinone radical [5] [V] | E1/2^b (V) DPV, second reduction, formation of quinone dianion [5] [V] | TrxR activity by lipoate reduction, time and dose dependence [2] | inhibition of TrxR (lipoate reduction) [2, 11] | further results
1 | CC(=O)OC[C@H]1O[C@@H]([S-])[C@H](OC(C)=O)[C@@H](OC(C)=O)[C@@H]1OC(C)=O.CCP(CC)CC.[Au+] [Auranofin, auranofin] | minimal or no ROS increase | inhibition of TrxR was apparent | 22.9 | 1670 ± 50 | – | – | – | – | increase in intracellular Au concentrations as compared to complex 1 (A549 lung cancer cells [4]): 2-5 fold
2 | Cc1cc(C)c(-n2c3c([n+](-c4c(C)cc(C)cc4C)[c]2[Au-][c]2n(-c4c(C)cc(C)cc4C)c4c([n+]2-c2c(C)cc(C)cc2C)C(=O)c2ccccc2C4=O)C(=O)c2ccccc2C3=O)c(C)c1.[Cl-] [Compound 2] | performed similarly | – | 1 | – | −0.46 | −1.31 | performed similarly | – | presence of CRT on cells (Panc-02 cells; Panc-02, 0.1 μM): 6.1±1.6 % of cells; presence of CRT on cells (Panc-02 cells; Panc-02, 1.0 μM): 33.4±5.8 % of cells
3 | Cc1cc(C)c(-n2c3c([n+](-c4c(C)cc(C)cc4C)[c]2[Au-][Cl])C(=O)c2ccccc2C3=O)c(C)c1 [Compound 3, (1,3-Dimesityl-4,5-naphthoquino-imidazol-2-ylidene)-gold(I) Chloride] | minimal or no ROS increase | – | 165 | 12100 | −0.47 | −1.31 | – | remained inactive | intracellular Au levels (ICP-MS) (A549 lung cancer cells [4]): no intracellular Au was detected
4 | Cc1cc(C)c(-n2c[n+](-c3c(C)cc(C)cc3C)c3c2C(=O)c2ccccc2C3=O)c(C)c1.[Cl-] [Compound 4[H][Cl], 1,3-Dimesitylnaphthoquinimidazolium chloride, reference compound] | – | – | 13.6 | 990 ± 120 | −0.38 | −1.15 | – | became evident | IC50 [6]: 626 ± 117 nM; fluorescence associated cell population shift (intracellular ROS increase) (A549 cells [1]; A549, 2.5 μM, 6 h incubation): ~11 fold; IC50 [7]: 159 ± 58 nM; IC50 (A549 lung cancer cells [3]; A549 lung cancer cells, MTT, 72 h, listed as 4, read-out: IC50): 994 nM; IC50 (A549 lung cancer cells [3]; Table 3, error is standard error of the mean, read-out: IC50 A549 Lung): 994 ± 120 nM; IC50 (PC-3 prostate (p53 null)): 136 ± 20 nM
5 | COc1cccc2c1C(=O)c1c(O)c3c(c(O)c1C2=O)C[C@@](O)(C(=O)CO)C[C@@H]3O[C@H]1C[C@H](N)[C@H](O)[C@H](C)O1 [Doxorubicin, doxorubicin] | minimal or no ROS increase | little to no inhibition | 1.41 | – | – | – | no inhibition of activity | remained inactive | IC50 (A549 lung cancer cells [3]; Homo sapiens, A549 lung cancer cells, MTT, 72 h, read-out: IC50): 103 ± 23 nM; induction of apoptosis (annexin-V/PI) (A549 cells [8]): provided similar results in both the early and late stage apoptotic quadrants
6 | O=C1[O][Pt]2([NH][C@@H]3CCCC[C@H]3[NH]2)[O]C1=O [oxaliplatin, reference compound] | – | – | – | – | – | – | – | – | presence of CRT on cells (Panc-02 cells; Panc-02, 300 μM): 18.6±2.8 % of cells
